Assay results: ChEMBL document CHEMBL2016493, “Design, synthesis, synergistic antimicrobial activity and cytotoxicity of 4-aryl substituted 3,4-dihydropyrimidinones of curcumin” (Bioorg Med Chem Lett, 2012)
Active and inactive are the calls of the source. No cut-off for these calls is given here.

Columns and labels:
Escherichia coli [1] = assay: Antibacterial activity against Escherichia coli ATCC 35218 at 160 uM/ml after 24 hrs by kirby-bauer method; type: functional; details: ATCC 35218, 24 h, read-out: IZ
Escherichia coli [2] = assay: Antibacterial activity against Escherichia coli ATCC 35218 at 80 uM/ml after 24 hrs by kirby-bauer method; type: functional; details: ATCC 35218, 24 h, read-out: IZ
Escherichia coli [3] = assay: Antibacterial activity against Escherichia coli ATCC 35218 at 40 uM/ml after 24 hrs by kirby-bauer method; type: functional; details: ATCC 35218, 24 h, read-out: IZ
Escherichia coli [4] = assay: Antibacterial activity against Escherichia coli ATCC 35218 at 20 uM/ml after 24 hrs by kirby-bauer method; type: functional; details: ATCC 35218, 24 h, read-out: IZ
[5] = test system: Burkholderia pseudomallei; assay: Antibacterial activity against Burkholderia pseudomallei NTCC 10274 at 160 uM/ml after 24 hrs by kirby-bauer method; type: functional; details: NTCC 10274, 24 h, read-out: IZ
[6] = test system: Burkholderia pseudomallei; assay: Antibacterial activity against Burkholderia pseudomallei NTCC 10274 at 80 uM/ml after 24 hrs by kirby-bauer method; type: functional; details: NTCC 10274, 24 h, read-out: IZ
[7] = test system: Burkholderia pseudomallei; assay: Antibacterial activity against Burkholderia pseudomallei NTCC 10274 at 40 uM/ml after 24 hrs by kirby-bauer method; type: functional; details: NTCC 10274, 24 h, read-out: IZ
[8] = test system: Burkholderia pseudomallei; assay: Antibacterial activity against Burkholderia pseudomallei NTCC 10274 at 20 uM/ml after 24 hrs by kirby-bauer method; type: functional
Pseudomonas aeruginosa [9] = assay: Antibacterial activity against Pseudomonas aeruginosa ATCC 15499 at 160 uM/ml after 24 hrs by kirby-bauer method; type: functional; details: ATCC 15499, 24 h, read-out: IZ
Pseudomonas aeruginosa [10] = assay: Antibacterial activity against Pseudomonas aeruginosa ATCC 15499 at 80 uM/ml after 24 hrs by kirby-bauer method; type: functional; details: ATCC 15499, 24 h, read-out: IZ
Pseudomonas aeruginosa [11] = assay: Antibacterial activity against Pseudomonas aeruginosa ATCC 15499 at 40 uM/ml after 24 hrs by kirby-bauer method; type: functional; details: ATCC 15499, 24 h, read-out: IZ
Pseudomonas aeruginosa [12] = assay: Antibacterial activity against Pseudomonas aeruginosa ATCC 15499 at 20 uM/ml after 24 hrs by kirby-bauer method; type: functional; details: ATCC 15499, 24 h, read-out: IZ
Salmonella typhimurium = assay: Antibacterial activity against Salmonella typhimurium ATCC 23564 at 160 uM/ml after 24 hrs by kirby-bauer method; type: functional; details: Salmonella enterica subsp. enterica serovar Typhimurium
Staphylococcus aureus = assay: Antibacterial activity against Staphylococcus aureus ATCC 11632 at 160 uM/ml after 24 hrs by kirby-bauer method; type: functional
Aspergillus niger [13] = assay: Antifungal activity against Aspergillus niger MTCC 1108 at 160 uM/ml after 48 hrs by paper disc diffusion method; type: functional; details: MTCC 1108, 48 h, read-out: IZ
Aspergillus niger [14] = assay: Antifungal activity against Aspergillus niger MTCC 1108 at 80 uM/ml after 48 hrs by paper disc diffusion method; type: functional; details: MTCC 1108, 48 h, read-out: IZ
Aspergillus niger [15] = assay: Antifungal activity against Aspergillus niger MTCC 1108 at 40 uM/ml after 48 hrs by paper disc diffusion method; type: functional
Aspergillus niger [16] = assay: Antifungal activity against Aspergillus niger MTCC 1108 at 20 uM/ml after 48 hrs by paper disc diffusion method; type: functional
Aspergillus flavus [17] = assay: Antifungal activity against Aspergillus flavus MTCC 1021 at 160 uM/ml after 48 hrs by paper disc diffusion method; type: functional; details: MTCC 1021, 48 h, read-out: IZ
Aspergillus flavus [18] = assay: Antifungal activity against Aspergillus flavus MTCC 1021 at 80 uM/ml after 48 hrs by paper disc diffusion method; type: functional
Aspergillus flavus [19] = assay: Antifungal activity against Aspergillus flavus MTCC 1021 at 40 uM/ml after 48 hrs by paper disc diffusion method; type: functional
Aspergillus flavus [20] = assay: Antifungal activity against Aspergillus flavus MTCC 1021 at 20 uM/ml after 48 hrs by paper disc diffusion method; type: functional
Curvularia lunata [21] = assay: Antifungal activity against Curvularia lunata MTCC 581 at 160 uM/ml after 48 hrs by paper disc diffusion method; type: functional; details: MTCC 581, 48 h, read-out: IZ
Curvularia lunata [22] = assay: Antifungal activity against Curvularia lunata MTCC 581 at 80 uM/ml after 48 hrs by paper disc diffusion method; type: functional; details: MTCC 581, 48 h, read-out: IZ
Curvularia lunata [23] = assay: Antifungal activity against Curvularia lunata MTCC 581 at 40 uM/ml after 48 hrs by paper disc diffusion method; type: functional; details: MTCC 581, 48 h, read-out: IZ
Curvularia lunata [24] = assay: Antifungal activity against Curvularia lunata MTCC 581 at 20 uM/ml after 48 hrs by paper disc diffusion method; type: functional; details: MTCC 581, 48 h, read-out: IZ
Trichoderma viride [25] = assay: Antifungal activity against Trichoderma viride MTCC 1107 at 160 uM/ml after 48 hrs by paper disc diffusion method; type: functional; details: MTCC 1107, 48 h, read-out: IZ
Trichoderma viride [26] = assay: Antifungal activity against Trichoderma viride MTCC 1107 at 80 uM/ml after 48 hrs by paper disc diffusion method; type: functional; details: MTCC 1107, 48 h, read-out: IZ
Trichoderma viride [27] = assay: Antifungal activity against Trichoderma viride MTCC 1107 at 40 uM/ml after 48 hrs by paper disc diffusion method; type: functional
Trichoderma viride [28] = assay: Antifungal activity against Trichoderma viride MTCC 1107 at 20 uM/ml after 48 hrs by paper disc diffusion method; type: functional
QG-56 = assay: Cytotoxicity against human QG56 cells after 48 hrs by MTT assay; type: functional, cell-based

In the case of COc1cc(/C=C/C(=O)C2=C(/C=C/c3ccc(O)c(OC)c3)NC(=S)NC2c2ccccc2)ccc1O (stereo unspecified), the zone of inhibition at 160 µM (Escherichia coli [1]) was 21 mm, the zone of inhibition at 80 µM (Escherichia coli [2]) was 18 mm and the zone of inhibition at 40 µM (Escherichia coli [3]) was 14 mm. It also gave a zone of inhibition at 20 µM (Escherichia coli [4]) of 12 mm, a zone of inhibition at 160 µM [5] of 18 mm and a zone of inhibition at 80 µM [6] of 16 mm. It also gave a zone of inhibition at 40 µM [7] of 13 mm, a zone of inhibition at 20 µM ([8]; NTCC 10274, 24 h, read-out: IZ) of 11 mm and a zone of inhibition at 160 µM (Pseudomonas aeruginosa [9]) of 18 mm. For the same compound, the zone of inhibition at 80 µM (Pseudomonas aeruginosa [10]) was 17 mm, the zone of inhibition at 40 µM (Pseudomonas aeruginosa [11]) was 14 mm and the zone of inhibition at 20 µM (Pseudomonas aeruginosa [12]) was 12 mm. The “inhibition zone (IZ)” value (Salmonella typhimurium) was “inactive”, the “inhibition zone (IZ)” value (Staphylococcus aureus) was “inactive” and the zone of inhibition at 160 µM (Aspergillus niger [13]) was 16 mm. The zone of inhibition at 80 µM (Aspergillus niger [14]) was 14 mm, the “inhibition zone (IZ)” value (Aspergillus niger [15]) was “inactive” and the “inhibition zone (IZ)” value (Aspergillus niger [16]) was “inactive”. For the same compound, the zone of inhibition at 160 µM (Aspergillus flavus [17]) was 9 mm, the “inhibition zone (IZ)” value (Aspergillus flavus [18]) was “inactive” and the “inhibition zone (IZ)” value (Aspergillus flavus [19]) was “inactive”. For the same compound, the “inhibition zone (IZ)” value (Aspergillus flavus [20]) was “inactive”, the zone of inhibition at 160 µM (Curvularia lunata [21]) was 26 mm and the zone of inhibition at 80 µM (Curvularia lunata [22]) was 23 mm. For the same compound, the zone of inhibition at 40 µM (Curvularia lunata [23]) was 21 mm, the zone of inhibition at 20 µM (Curvularia lunata [24]) was 18 mm and the zone of inhibition at 160 µM (Trichoderma viride [25]) was 24 mm. It also gave a zone of inhibition at 80 µM (Trichoderma viride [26]) of 21 mm, a zone of inhibition (Trichoderma viride [27]; MTCC 1107, 48 h, read-out: IZ) of 21 mm and a zone of inhibition at 20 µM (Trichoderma viride [28]; MTCC 1107, 48 h, read-out: IZ) of 18 mm. The IC50 (QG-56) was 50 uM/ml, the IC50 (HepG2) was 50 uM/ml and the IC50 (HCT-116) was 100 uM/ml.
For COc1cc(/C=C/C(=O)C2=C(/C=C/c3ccc(O)c(OC)c3)NC(=O)NC2c2ccccc2O)ccc1O (stereo unspecified), the zone of inhibition at 160 µM (Escherichia coli [1]) was 22 mm, the zone of inhibition at 80 µM (Escherichia coli [2]) was 19 mm and the zone of inhibition at 40 µM (Escherichia coli [3]) was 18 mm. The zone of inhibition at 20 µM (Escherichia coli [4]) was 15 mm, the zone of inhibition at 160 µM [5] was 19 mm and the zone of inhibition at 80 µM [6] was 13 mm. The zone of inhibition at 40 µM [7] was 11 mm, the “inhibition zone (IZ)” value [8] was “inactive” and the zone of inhibition at 160 µM (Pseudomonas aeruginosa [9]) was 24 mm. It also gave a zone of inhibition at 80 µM (Pseudomonas aeruginosa [10]) of 21 mm, a zone of inhibition at 40 µM (Pseudomonas aeruginosa [11]) of 19 mm and a zone of inhibition at 20 µM (Pseudomonas aeruginosa [12]) of 18 mm. The “inhibition zone (IZ)” value (Salmonella typhimurium) was “inactive”, the “inhibition zone (IZ)” value (Staphylococcus aureus) was “inactive” and the zone of inhibition at 160 µM (Aspergillus niger [13]) was 13 mm. The zone of inhibition at 80 µM (Aspergillus niger [14]) was 11 mm, the zone of inhibition at 40 µM (Aspergillus niger [15]; MTCC 1108, 48 h, read-out: IZ) was 9 mm and the “inhibition zone (IZ)” value (Aspergillus niger [16]) was “inactive”. The zone of inhibition at 160 µM (Aspergillus flavus [17]) was 9 mm, the “inhibition zone (IZ)” value (Aspergillus flavus [18]) was “inactive” and the “inhibition zone (IZ)” value (Aspergillus flavus [19]) was “inactive”. The “inhibition zone (IZ)” value (Aspergillus flavus [20]) was “inactive”, the zone of inhibition at 160 µM (Curvularia lunata [21]) was 23 mm and the zone of inhibition at 80 µM (Curvularia lunata [22]) was 21 mm. It also gave a zone of inhibition at 40 µM (Curvularia lunata [23]) of 20 mm, a zone of inhibition at 20 µM (Curvularia lunata [24]) of 17 mm and a zone of inhibition at 160 µM (Trichoderma viride [25]) of 11 mm. The zone of inhibition at 80 µM (Trichoderma viride [26]) was 9 mm, the “inhibition zone (IZ)” value (Trichoderma viride [27]) was “inactive” and the “inhibition zone (IZ)” value (Trichoderma viride [28]) was “inactive”. For the same compound, the IC50 (QG-56) was 100 uM/ml, the IC50 (HepG2) was 100 uM/ml and the IC50 (HCT-116) was 100 uM/ml.
